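The compound was tested at five concentrations on cells cultured in 96-well plates, with a 48-hour exposure period. At the GI50, growth is halved.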 Activity calls are given as the source filed them. Rule as the data show it: active = GI50 up to about 1.1 µM and inactive = higher.
What was measured:
Assay in all cases: NCI tumour cell line growth inhibition, 48 h
CAKI-1 = system: CAKI-1
786-0 = system: 786-0
LOX IMVI = system: LOX IMVI
SK-MEL-2 = system: SK-MEL-2
RPMI-8226 = system: RPMI-8226
MDA-MB-231 = system: MDA-MB-231
HT-29 = system: HT-29
HL-60 = system: HL-60
T47D = system: T47D
UACC-62 = system: UACC-62
OVCAR-4 = system: OVCAR-4
SK-MEL-5 = system: SK-MEL-5
OVCAR-3 = system: OVCAR-3
MDA-N = system: MDA-N
CCRF-CEM = system: CCRF-CEM
SNB-75 = system: SNB-75
SF-539 = system: SF-539
SK-OV-3 = system: SK-OV-3
RXF 393 = system: RXF 393
ACHN = system: ACHN

Row | Structure (SMILES) | GI50 (CAKI-1) | GI50 (786-0) | GI50 (LOX IMVI) | GI50 (SK-MEL-2) | GI50 (RPMI-8226) | GI50 (MDA-MB-231) | GI50 (HT-29) | GI50 (HL-60) | GI50 (T47D) | GI50 (UACC-62) | GI50 (OVCAR-4) | GI50 (SK-MEL-5) | GI50 (OVCAR-3) | GI50 (MDA-N) | GI50 (CCRF-CEM) | GI50 (SNB-75) | GI50 (SF-539) | GI50 (SK-OV-3) | GI50 (RXF 393) | GI50 (ACHN)
1 | O=c1c(C(c2ccc([N+](=O)[O-])cc2)c2c(O)oc3ccccc3c2=O)c(O)oc2ccccc12 | > 100 µM (inactive) | > 100 µM (inactive) | > 100 µM (inactive) | > 100 µM (inactive) | 1 µM (active) | > 100 µM (inactive) | > 100 µM (inactive) | > 100 µM (inactive) | > 100 µM (inactive) | > 100 µM (inactive) | > 100 µM (inactive) | > 100 µM (inactive) | > 100 µM (inactive) | > 100 µM (inactive) | > 100 µM (inactive) | 86.5 µM (inactive) | – | – | – | –
2 | O=C(N/N=C(COc1ccc(Cl)cc1)\N=C\c1ccncc1)c1ccncc1 | > 100 µM (inactive) | > 100 µM (inactive) | > 100 µM (inactive) | > 100 µM (inactive) | 83.8 µM (inactive) | > 100 µM (inactive) | > 100 µM (inactive) | > 100 µM (inactive) | 96.4 µM (inactive) | > 100 µM (inactive) | > 100 µM (inactive) | – | > 100 µM (inactive) | > 100 µM (inactive) | > 100 µM (inactive) | – | > 100 µM (inactive) | > 100 µM (inactive) | 57.1 µM (inactive) | > 100 µM (inactive)
3 | COc1ccc(/C=N/n2c(Cc3ccc(Cl)cc3)n[nH]c2=O)c(OC)c1 | 45.4 µM (inactive) | 22.4 µM (inactive) | 60.5 µM (inactive) | 53 µM (inactive) | > 100 µM (inactive) | 52.5 µM (inactive) | 24.9 µM (inactive) | – | 69 µM (inactive) | 24.9 µM (inactive) | 16 µM (inactive) | > 10 µM (inactive) | 35.2 µM (inactive) | 57.9 µM (inactive) | > 100 µM (inactive) | 15.9 µM (inactive) | > 100 µM (inactive) | 26.1 µM (inactive) | 19.1 µM (inactive) | 44.7 µM (inactive)
4 | O=P(OCc1ccccc1)(OCc1ccccc1)C(O)/C=C/c1ccccc1 (centres undefined) | 35.7 µM (inactive) | 17.7 µM (inactive) | 14.9 µM (inactive) | 20.7 µM (inactive) | 23.6 µM (inactive) | 22.3 µM (inactive) | 21.3 µM (inactive) | 19.8 µM (inactive) | 33.7 µM (inactive) | 15.8 µM (inactive) | 21.4 µM (inactive) | 19.3 µM (inactive) | 20.9 µM (inactive) | 17.3 µM (inactive) | – | – | – | 45.1 µM (inactive) | 33.8 µM (inactive) | 29.1 µM (inactive)
5 | CC(/C=C/c1ccccc1)=N\NC(=S)N/N=C(C)/C=C/c1ccccc1 | – | 11 µM (inactive) | 11 µM (inactive) | 10.9 µM (inactive) | – | 12.8 µM (inactive) | 8.69 µM (inactive) | 8.67 µM (inactive) | 13.9 µM (inactive) | 26.2 µM (inactive) | 5.4 µM (inactive) | 13.8 µM (inactive) | 5.64 µM (inactive) | 25.5 µM (inactive) | 6.38 µM (inactive) | 22.5 µM (inactive) | 21.1 µM (inactive) | 13.3 µM (inactive) | 13.7 µM (inactive) | 23.6 µM (inactive)
6 | Cc1ccccc1/N=N/c1c(O)c(S(=O)(=O)O)cc2cc(S(=O)(=O)O)ccc12 | > 100 µM (inactive) | > 100 µM (inactive) | – | > 100 µM (inactive) | – | > 100 µM (inactive) | > 100 µM (inactive) | > 100 µM (inactive) | > 100 µM (inactive) | > 100 µM (inactive) | > 100 µM (inactive) | > 100 µM (inactive) | > 100 µM (inactive) | > 100 µM (inactive) | > 100 µM (inactive) | 70.1 µM (inactive) | > 100 µM (inactive) | > 100 µM (inactive) | > 100 µM (inactive) | > 100 µM (inactive)
7 | CC(=O)Oc1cc2c(n(C)c1=O)-c1ccccc1C2 | 29.1 µM (inactive) | > 100 µM (inactive) | 29.4 µM (inactive) | > 100 µM (inactive) | > 100 µM (inactive) | 61.4 µM (inactive) | 78.2 µM (inactive) | – | > 100 µM (inactive) | 75.3 µM (inactive) | 32.5 µM (inactive) | 85.3 µM (inactive) | 33.3 µM (inactive) | > 100 µM (inactive) | 34.2 µM (inactive) | > 100 µM (inactive) | – | > 100 µM (inactive) | > 100 µM (inactive) | 32.5 µM (inactive)
8 | c1cc(-c2ccc(-c3ccc(C4=NCCCN4)cc3)o2)ccc1C1=NCCCN1 | 74.1 µM (inactive) | 61.5 µM (inactive) | 37.4 µM (inactive) | > 100 µM (inactive) | – | > 100 µM (inactive) | 76.4 µM (inactive) | > 100 µM (inactive) | 59.7 µM (inactive) | 19 µM (inactive) | > 100 µM (inactive) | 22.8 µM (inactive) | > 100 µM (inactive) | 32.6 µM (inactive) | > 100 µM (inactive) | 43 µM (inactive) | 87.5 µM (inactive) | > 100 µM (inactive) | > 100 µM (inactive) | > 100 µM (inactive)
9 | O=S(=O)(O)c1ccc(/N=N/c2ccc(/N=N/c3c(O)c(S(=O)(=O)O)cc4cc(S(=O)(=O)O)ccc34)cc2)cc1 | > 100 µM (inactive) | > 100 µM (inactive) | – | > 100 µM (inactive) | > 100 µM (inactive) | > 100 µM (inactive) | > 100 µM (inactive) | > 100 µM (inactive) | > 100 µM (inactive) | > 100 µM (inactive) | > 100 µM (inactive) | > 100 µM (inactive) | > 100 µM (inactive) | > 100 µM (inactive) | > 100 µM (inactive) | – | > 100 µM (inactive) | > 100 µM (inactive) | > 100 µM (inactive) | > 100 µM (inactive)
10 | CC1(C(O)c2ccccc2)CN(C(C)(C)C)C(=O)/C1=C\Sc1ccccc1 (centres undefined) | > 100 µM (inactive) | 46 µM (inactive) | 14.1 µM (inactive) | 21.3 µM (inactive) | 9.95 µM (inactive) | 53 µM (inactive) | 21.1 µM (inactive) | 24.7 µM (inactive) | 13.3 µM (inactive) | > 100 µM (inactive) | 27.4 µM (inactive) | 43.7 µM (inactive) | 21.2 µM (inactive) | 39.1 µM (inactive) | 23.9 µM (inactive) | – | > 100 µM (inactive) | 44.9 µM (inactive) | – | 64.1 µM (inactive)
11 | C=CCNC(NCC=C)=C(C(Cl)=C(Cl)Cl)[N+](=O)[O-] | 30.5 µM (inactive) | 34.9 µM (inactive) | – | > 100 µM (inactive) | 49.1 µM (inactive) | > 100 µM (inactive) | 54.6 µM (inactive) | – | 30.5 µM (inactive) | > 100 µM (inactive) | 31.8 µM (inactive) | – | 26.2 µM (inactive) | 32.5 µM (inactive) | 26.5 µM (inactive) | 89.1 µM (inactive) | 21.3 µM (inactive) | > 100 µM (inactive) | – | 31.8 µM (inactive)
12 | CCOC(=O)C1(Cc2ccccc2)Cc2ccccc2C1=O (centres undefined) | – | 32.5 µM (inactive) | 24.1 µM (inactive) | 14.8 µM (inactive) | 20.4 µM (inactive) | 25.9 µM (inactive) | 23.6 µM (inactive) | 19.1 µM (inactive) | 28.6 µM (inactive) | 20.8 µM (inactive) | 18.7 µM (inactive) | 15.1 µM (inactive) | 30.8 µM (inactive) | 16.4 µM (inactive) | 27.8 µM (inactive) | 25.4 µM (inactive) | 35.1 µM (inactive) | 30.8 µM (inactive) | – | 28.1 µM (inactive)
13 | Clc1ccc(/N=C2\c3ccccc3CN2c2ccc(Cl)cc2)cc1 | > 100 µM (inactive) | > 100 µM (inactive) | > 100 µM (inactive) | 4.68 µM (inactive) | 7.69 µM (inactive) | 53.3 µM (inactive) | 19 µM (inactive) | – | 0.219 µM (active) | > 100 µM (inactive) | 61.9 µM (inactive) | 1.43 µM (inactive) | 52.7 µM (inactive) | 30.1 µM (inactive) | < 0.01 µM (active) | 63.8 µM (inactive) | 30.2 µM (inactive) | > 100 µM (inactive) | 29.8 µM (inactive) | 0.668 µM (active)
14 | O=C(C/N=C(\CN(c1ccccc1)c1ccccc1)Oc1ccc(Cl)cc1Cl)n1ccnc1 | – | > 100 µM (inactive) | > 100 µM (inactive) | > 100 µM (inactive) | > 100 µM (inactive) | > 100 µM (inactive) | > 100 µM (inactive) | – | > 100 µM (inactive) | > 100 µM (inactive) | > 100 µM (inactive) | > 100 µM (inactive) | > 100 µM (inactive) | > 100 µM (inactive) | > 100 µM (inactive) | > 100 µM (inactive) | > 100 µM (inactive) | > 100 µM (inactive) | > 100 µM (inactive) | > 100 µM (inactive)
15 | COc1ccc(C(SCCO)(c2ccccc2)c2ccccc2)cc1 | 15.5 µM (inactive) | 12.5 µM (inactive) | 18.1 µM (inactive) | 13.1 µM (inactive) | – | 14.3 µM (inactive) | 14.5 µM (inactive) | 22.8 µM (inactive) | 9.84 µM (inactive) | 14.3 µM (inactive) | 15.6 µM (inactive) | 10.1 µM (inactive) | 14 µM (inactive) | 8.26 µM (inactive) | 15.5 µM (inactive) | 12.2 µM (inactive) | 15.6 µM (inactive) | 16.5 µM (inactive) | 16.1 µM (inactive) | 14.1 µM (inactive)

Reference: ChEMBL document CHEMBL1201862, “PubChem BioAssay data set” (2004)
